Source: the CATMoS acute toxicity set (Mansouri et al. 2021)

Assay: GHS categories as the set defines them, by LD50: 1 up to 5, 2 up to 50, 3 up to 300, 4 up to 2000, 5 above 2000 mg/kg
Conditions: rat; in vivo; po

Compound | GHS category
Clc1ccc(Cn2ccnc2-c2ccccc2)cc1 | 4
O=[N+]([O-])c1ccc2c(c1)COP(=S)(N1CCOCC1)O2 (stereo not drawn) | 3
CCC(=O)OCC(C)(C)OC(C)C1CCCC(C)(C)C1 (stereo not drawn) | 5
CCCCCCCCCCCCCC(=O)Nc1ccc(Cc2ccccn2)c([N+](=O)[O-])c1 | 3
C[C@@H]1CCN(C(=O)[C@H](CCCNC(=N)N)NS(=O)(=O)c2cccc3c2NC[C@H](C)C3)[C@@H](C(=O)O)C1 | 5
CCSCCO | 5
C=CCCCCC=C | 5
CCCCOC(=O)C(=O)Nc1cccc(-c2nnn[nH]2)c1 | 5
CC(C(=O)C(N)=O)c1ccc(N2Cc3ccccc3C2=O)cc1 (stereo not drawn) | 5
CN1C(=O)COc2cc(C(=O)c3ccccc3)ccc21 | 5
CCO[C@@H]1O[C@H](C(COCc2ccccc2)OCc2ccccc2)[C@H](OCc2ccccc2)[C@H]1O (stereo partly drawn) | 5
Cc1ccnc(N)c1 | 4
COCC1COC(Cn2cncn2)(c2cc3ccccc3o2)O1 (stereo not drawn) | 4
CC(C)CCCC(C)CCCC(C)CCCCC(C)CCCC(C)CCCC(C)C (stereo not drawn) | 4
O=C1OCCC1O (stereo not drawn) | 5
O=C(COCCOCCOCC(=O)Nc1c(I)cc(I)c(C(=O)O)c1I)Nc1c(I)cc(I)c(C(=O)O)c1I | 5
CCCOC(=O)C(C(=O)OCCC)=C1SC2C(S1)N(C)CCN2C (stereo not drawn) | 4
CCCCC(=O)O[C@]1(C(=O)CO)[C@H](C)C[C@H]2[C@@H]3CCC4=CC(=O)C=C[C@]4(C)[C@@]3(F)[C@@H](O)C[C@@]21C | 5
CCO[Si](CCCOCC1CO1)(OCC)OCC (stereo not drawn) | 5
CC1=NN(c2ccccc2)C(=O)C1=CN1CCCCC1 | 5
COc1ccc(N(CCCC(=O)O)C(=O)c2ccc(Cl)cc2)c(OC)c1 | 4
C#C[C@]1(O)CC[C@H]2[C@@H]3CCc4cc(OC)ccc4[C@H]3CC[C@@]21C | 5

Compound | GHS category
CCCCCCCCCCOC | 5
COC(=O)C(C)(C)C(=O)OC1=C(C(=O)Nc2ccccn2)N(C)S(=O)(=O)c2cc(Cl)sc21 | 2
CC(C)C1=CC23CCC4C(C)(C(=O)N5CCNCC5)CCCC4(C)C2CC1C1C(=O)OC(=O)C13 (stereo not drawn) | 5
CCCCC(CC)COC(=O)C(C#N)=C(c1ccccc1)c1ccccc1 (stereo not drawn) | 5
Nc1ncnc2c1ncn2[C@@H]1O[C@H](CO)[C@@H](O)[C@@H]1O | 5
CC(C)(C)c1cc2c(c(C(C)(C)C)c1)OP(=O)(O)Oc1c(cc(C(C)(C)C)cc1C(C)(C)C)C2 | 5
O=S(=O)(O)c1cc(O)c2c(N=Nc3ccc(Nc4ccccc4)c4c(S(=O)(=O)O)cccc34)cc(S(=O)(=O)O)cc2c1 | 5
Nc1ccc2c(c1)C(=O)c1ccccc1C2=O | 5
CC(C)(CO)CO | 5
CCC=CCCCCCCCCCCCCCCOCC | 5
C[C@]12CC[C@H]3[C@@H](CC[C@@]45O[C@@H]4C(O)=C(C#N)C[C@]35C)[C@@H]1CC[C@@H]2O | 5
COc1ccc(C=Nc2ccccc2C(=O)O)cc1 | 4
CCCCCCCCC(C)C=O (stereo not drawn) | 5
CCN(C)c1cc(=O)c2c(ccc3ccccc32)o1 | 4
CCCCC/C=C\C/C=C\CCCCCCCC(=O)NC(C)c1ccccc1 (stereo not drawn) | 5
CC(O)CO[C@@H]1[C@@H](O)[C@H]2O[C@H]3[C@H](OCC(C)O)[C@@H](O)[C@@H](O[C@H]4[C@H](O)[C@@H](OCC(C)O)[C@@H](O[C@H]5[C@H](O)[C@@H](O)[C@@H](O[C@H]6[C@H](O)[C@@H](OCC(C)O)[C@@H](O[C@H]7[C@H](O)[C@@H](O)[C@@H](O[C@@H]1[C@@H](CO)O2)O[C@@H]7CO)O[C@@H]6CO)O[C@@H]5CO)O[C@@H]4CO)O[C@@H]3CO (stereo partly drawn) | 5
NC(=O)c1cc[n+](CC2=C(C(=O)O)N3C(=O)[C@@H](NC(=O)[C@H](c4ccccc4)S(=O)(=O)[O-])[C@@H]3SC2)cc1 | 5
C[C@@H](Oc1cc(Br)cnc1N)c1c(Cl)ccc(F)c1Cl | 5
C=CCNC(=O)Oc1cccc2c1OC(C)(C)O2 | 4
CCCCCC(=O)Nc1ccc(Cc2ccccn2)c([N+](=O)[O-])c1 | 3
COC(=O)c1c(C)nc(C)c(C(=O)O)c1-c1cc([N+](=O)[O-])ccc1F | 5
Cc1ccc2c([nH]c(=O)c3c(=O)cc(C(=O)OCCC(C)C)oc32)c1C | 5

Compound | GHS category
NC(=O)c1cn(CCO)nc1[N+](=O)[O-] | 5
O=C1C=C2C=C[C@@H]3C[C@@]2(O1)[C@H]1CCCCN31 | 4
OC[C@H]1O[C@@H](n2cnc3c(NC[C@H](O)COc4cccc5ccccc45)ncnc32)[C@H](O)[C@@H]1O | 4
O=C(Nc1ccc(Cl)cc1)NS(=O)(=O)c1ccc2c(c1)CCC2 | 4
NC(=O)Oc1ccc(Cl)cc1C(=O)Oc1ccc(Cl)cc1Cl | 5
CC1Cc2ccccc2N1NC(=O)c1ccc(Cl)c(S(N)(=O)=O)c1 (stereo not drawn) | 5
Nc1ccc2oc(N)nc2c1 | 4
Cc1nc2ccccc2c(=O)n1-c1ccccc1C#N | 4
Clc1cc(Cl)c2oc(C3(Cn4ccnc4)OCCCO3)cc2c1 | 4
Cc1cc(O)c(C)c2c1OC(C)(CCCC(C)CCCC(C)CCCC(C)C)CC2 (racemic) | 5
OCC(CBr)(CBr)CBr | 5
COc1ccc(CCC(C)=O)cc1 | 5
CCCCCCCc1ccc(O)cc1 | 5
CCCCOC(=O)c1ccc(-n2nc(OCCCN3CCCCC3)c3ccccc32)cc1 | 4
CCC=CCCCCCCCC(=O)OC | 5
C=COCC1CCC(COC=C)CC1 (stereo not drawn) | 5
CC(C)(C)CC(C)(C)c1cc(-n2nc3ccccc3n2)c(O)c(C(C)(C)c2ccccc2)c1 | 5
CCCc1nc2ccnn2c(Cl)c1Cc1ccc(-c2ccccc2-c2nn[nH]n2)cc1 | 4
Cn1c(=O)c2c([nH]c(=O)n2C)n(C)c1=O | 5
COC(=O)c1ccc(CNS(C)(=O)=O)cc1S(=O)(=O)NC(=O)Nc1nc(OC)cc(OC)n1 | 5
Cc1nc(N)sc1C(=O)NCc1ccccc1 | 4
O=C1C=CC(=NNc2ccc(N=Nc3ccc(-c4ccc(NN=C5C=CC(=O)C(C(=O)O)=C5)cc4)cc3)c3ccc(S(=O)(=O)O)cc23)C=C1 | 5

Compound | GHS category
C[C@]12CCC(=O)C[C@@H]1CC[C@@H]1[C@@H]2CC[C@@]2(C)[C@H]1CC[C@]2(C)O | 5
CCOC(=O)C(C)(C)NC(=O)c1cnc2cccc(C)n2c1=O | 3
CCC=CCC=CCC=CCC=CCCCCCCC(=O)OCC | 5
CCCCOC(=O)C1C(C(=O)OCCCC)C2(Cl)C(Cl)=C(Cl)C1(Cl)C2(Cl)Cl (stereo not drawn) | 5
NC[C@H]1O[C@H](O[C@H]2[C@H](O)[C@@H](O[C@H]3O[C@H](CO)[C@@H](O)[C@H](N)[C@H]3O)[C@H](N)C[C@@H]2N)[C@H](N)C[C@@H]1O | 5
Nc1c(I)c(C(=O)Cl)c(I)c(C(=O)Cl)c1I | 5
CC1Oc2cc(C(=O)c3cccs3)ccc2N(C)C1=O (stereo not drawn) | 5
COc1ccccc1C1NC(=O)CCS1 (stereo not drawn) | 5
COc1ccc2c(c1)CCN(c1ccccc1)C2c1ccccc1N (stereo not drawn) | 4
CN(C(=O)CNCP(=O)(O)O)S(C)(=O)=O | 2
CO/N=C(/C(=O)N[C@@H]1C(=O)N2C(C(=O)O)=C(COC(C)=O)CS[C@H]12)c1csc(N)n1 | 5
CSCC[C@H](NC(=O)CCSC(=O)c1ccccc1)C(=O)O | 5
O=C(Nc1cc(Cl)c(NC(=O)c2cc3ccccc3c(N=Nc3cc(C(F)(F)F)ccc3Cl)c2O)cc1Cl)c1cc2ccccc2c(N=Nc2cc(C(F)(F)F)ccc2Cl)c1O | 5
CCCCCCCCCCCCCCCCCCCCO | 5
CCCCCCCCCCSCCN1CCCC1=O | 5
CCN(CC)CCC1=NC(=C2C=CC=CC2=O)NO1 | 5
C[C@@H]1[C@@H](c2ccc(Cl)cc2)SC(=O)N1C(=O)NC1CCCCC1 (single isomer, unassigned) | 5
Cc1ccc2oc(C3(Cn4ccnc4)OCCO3)cc2c1 | 4
CC1(C)S[C@@H]2[C@H](NC(=O)[C@H](NC(=O)N3CCN(S(C)(=O)=O)C3=O)c3ccccc3)C(=O)N2[C@H]1C(=O)O | 5
Clc1cccc(Cl)c1Nc1ccccc1 | 5
Clc1cc(Cl)c2oc(C3(Cn4cncn4)OCCO3)cc2c1 | 4
O=C1NCCCN1CN1CCOCC1 | 5

Compound | GHS category
CCCCCCCCCCCCCCCOS(=O)(=O)O | 5
c1ccc2oc(C3(Cn4cncn4)OCCO3)cc2c1 | 4
CCCCCCCCC=CCCCCCCCCCCCC(=O)NCCCN(C)C | 5
CC[n+]1c(-c2ccccc2)c2cc(N)ccc2c2ccc(N)cc21 | 5
COc1ccc(CCN(C(=O)CCCSc2nnnn2C)C2CCCCC2)cc1OC | 4
CCCCNc1cc(C(=O)O)cc(S(N)(=O)=O)c1Oc1ccccc1 | 5
CCCCCCCCCCCCCCCCCC(=O)OCCOCCO | 5
C=CC1=C(C(=O)O)N2C(=O)[C@@H](NC(=O)/C(=N\O)c3csc(N)n3)[C@H]2SC1 | 5
C=CC(=C)CC/C=C(\C)CCC=C(C)C | 5
CCCCCCCCCCCC(=O)OCC(C)(C)C=NCC1(C)CC(N=CC(C)(C)COC(=O)CCCCCCCCCCC)CC(C)(C)C1 (stereo not drawn) | 5
NS(=O)(=O)c1cc2c(cc1Cl)NC(C1CC3C=CC1C3)NS2(=O)=O (stereo not drawn) | 5
O=[N+]([O-])c1ccc(OP(=S)(Oc2ccc([N+](=O)[O-])cc2)Oc2ccc([N+](=O)[O-])cc2)cc1 | 5
Cc1cnc(C2=NC(=O)C(C)(C(C)C)N2)c(C(=O)O)c1 (stereo not drawn) | 5
CCOC(=O)COc1nn(-c2cccc(C(F)(F)F)c2)c2ncccc12 | 4
CCCCCC(=O)OC | 5
CCCCCC(=Cc1ccccc1)C(OC)OC | 5
CCC1(CO)COCOC1 | 5
CCCS(=O)(=O)Nc1ccc(F)c(C(=O)c2cn(C(=O)c3c(Cl)cccc3Cl)c3ncc(Br)cc23)c1F | 5
CCO[Si](C)(OCC)OCC | 5
CC(CCC(=O)O)C(=O)O (stereo not drawn) | 4
